Active and inactive are the calls of the source. The rule behind the calls is not given here.
Key:
SK-BR-3 [1] = experiment: Antiproliferative activity against human SK-BR-3 cells incubated for 72 hrs by CCK8 assay; format: functional, cell-based; details: SK-BR-3, 72 h
[2] = target: T1, Receptor tyrosine-protein kinase erbB-3 (Homo sapiens, UniProt P21860); experiment: Induction of hydrophobic tag-mediated HER3 degradation in human SK-BR-3 cells incubated for 8 hrs by immunoblot analysis; format: cell-based
[3] = target: T1, Receptor tyrosine-protein kinase erbB-3; experiment: Induction of hydrophobic tag-mediated HER3 degradation in human SK-BR-3 cells at 1000 nM by immunoblot analysis; format: cell-based; details: time <= 24.0 hrs
[4] = target: T1, Receptor tyrosine-protein kinase erbB-3; experiment: Induction of hydrophobic tag-mediated HER3 degradation in human MDA-MB-453 cells upto 2000 nM incubated for 8 hrs by immunoblot analysis; format: cell-based
[5] = target: T1, Receptor tyrosine-protein kinase erbB-3; experiment: Induction of hydrophobic tag-mediated HER3 degradation in human A549 cells upto 2000 nM incubated for 8 hrs by immunoblot analysis; format: cell-based
[6] = target: T1, Receptor tyrosine-protein kinase erbB-3; experiment: Induction of Hsp90 binding to HER3 in human SK-BR-3 cells at 1 uM incubated for 8 hrs by Co-IP method; format: cell-based
[7] = target: T1, Receptor tyrosine-protein kinase erbB-3; experiment: Induction of HER3 ubiquitination in human SK-BR-3 cells at 1 uM incubated for 8 hrs by Co-IP method; format: cell-based
[8] = target: T1, Receptor tyrosine-protein kinase erbB-3; experiment: Induction of hydrophobic tag-mediated HER3 degradation in human SK-BR-3 cells at 1 uM incubated for 8 hrs in presence of chloroquine by immunoblot analysis; format: cell-based
[9] = target: T1, Receptor tyrosine-protein kinase erbB-3; experiment: Induction of hydrophobic tag-mediated HER3 degradation in human SK-BR-3 cells at 1 uM incubated for 8 hrs in presence of MG132 by immunoblot analysis; format: cell-based
SK-BR-3 [10] = experiment: Induction of autophagy in human SK-BR-3 cells assessed as increase in LC3B-II level upto 2 uM incubated for 8 hrs by Western blot analysis; format: functional, cell-based
[11] = target: T1, Receptor tyrosine-protein kinase erbB-3; experiment: Induction of hydrophobic tag-mediated HER3 degradation in human SK-BR-3 cells assessed as decrease in HER3 level upto 2000 nM incubated for 8 hrs by immunoblot analysis; format: cell-based
[12] = target: T1, Receptor tyrosine-protein kinase erbB-3; experiment: Induction of hydrophobic tag-mediated HER3 degradation in human SK-BR-3 cells assessed as decrease in p-AKT level upto 2000 nM incubated for 8 hrs by immunoblot analysis; format: cell-based
SK-BR-3 [13] = experiment: Inhibition of cell adhesion in human SK-BR-3 cells upto 2000 nM incubated for 8 hrs by crystal violet staining based analysis; format: functional

T1 sequence (P21860 whole entry): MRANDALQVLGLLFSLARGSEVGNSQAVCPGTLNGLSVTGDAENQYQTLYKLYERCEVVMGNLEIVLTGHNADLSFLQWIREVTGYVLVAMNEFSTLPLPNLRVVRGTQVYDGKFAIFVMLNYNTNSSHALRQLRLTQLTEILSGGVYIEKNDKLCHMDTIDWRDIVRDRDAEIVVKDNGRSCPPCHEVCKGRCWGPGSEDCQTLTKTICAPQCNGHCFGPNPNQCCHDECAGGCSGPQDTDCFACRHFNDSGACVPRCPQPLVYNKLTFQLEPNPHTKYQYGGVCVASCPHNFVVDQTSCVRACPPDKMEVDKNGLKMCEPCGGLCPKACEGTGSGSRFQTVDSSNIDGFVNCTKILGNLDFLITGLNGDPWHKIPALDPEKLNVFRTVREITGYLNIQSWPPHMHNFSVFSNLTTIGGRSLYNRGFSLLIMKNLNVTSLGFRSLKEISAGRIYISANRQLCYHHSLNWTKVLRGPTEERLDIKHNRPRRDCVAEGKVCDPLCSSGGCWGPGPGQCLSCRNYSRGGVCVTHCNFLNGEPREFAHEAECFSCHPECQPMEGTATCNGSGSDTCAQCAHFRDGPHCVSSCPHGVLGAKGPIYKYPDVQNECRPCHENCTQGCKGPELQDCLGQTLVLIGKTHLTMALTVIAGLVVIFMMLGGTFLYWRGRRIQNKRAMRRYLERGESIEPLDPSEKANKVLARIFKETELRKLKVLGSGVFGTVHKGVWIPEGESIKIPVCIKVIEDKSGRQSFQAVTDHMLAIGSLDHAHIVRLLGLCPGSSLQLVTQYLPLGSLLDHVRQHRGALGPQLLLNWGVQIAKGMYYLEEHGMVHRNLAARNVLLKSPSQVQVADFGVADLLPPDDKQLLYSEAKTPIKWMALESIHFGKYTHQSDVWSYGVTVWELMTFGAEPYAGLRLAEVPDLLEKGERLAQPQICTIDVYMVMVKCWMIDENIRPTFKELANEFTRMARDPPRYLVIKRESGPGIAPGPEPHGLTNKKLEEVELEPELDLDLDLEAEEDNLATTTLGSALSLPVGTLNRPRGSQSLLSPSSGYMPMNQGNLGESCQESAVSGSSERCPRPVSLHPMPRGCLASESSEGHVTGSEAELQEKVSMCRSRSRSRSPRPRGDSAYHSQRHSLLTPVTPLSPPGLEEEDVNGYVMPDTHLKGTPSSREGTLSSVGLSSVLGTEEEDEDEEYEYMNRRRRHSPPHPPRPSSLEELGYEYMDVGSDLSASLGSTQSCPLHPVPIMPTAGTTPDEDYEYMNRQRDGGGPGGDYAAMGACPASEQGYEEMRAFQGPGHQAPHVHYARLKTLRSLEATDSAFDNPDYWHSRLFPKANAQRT

COc1cc(Nc2c(C#N)cnc3cc(OCCCN4CCN(C)CC4)c(OC)cc23)c(Cl)cc1Cl [BOSUTINIB]
IC50 (SK-BR-3 [1]): 5140 nM

COc1cc(Nc2c(C#N)cnc3cc(OCCCN4CCC5(CC4)CCN(CCC46C[C@H]7C[C@@H](C4)C[C@@H](C6)C7)CC5)c(OC)cc23)c(Cl)cc1Cl
DC50 [2]: 559 nM | Activity ([2]; dose <= 2000.0 nM): Dose-dependent-effect | Activity [3]: Time-dependent-effect | Activity [4]: Active | Activity [5]: Active | Activity [6]: Active | Activity [7]: Active | Activity [8]: inactive | Activity [9]: Active | Activity (SK-BR-3 [10]): Active | Activity [11]: Active; Exhibited As More Potent Than Bosutinib | Activity [12]: Active; Exhibited As More Potent Than Bosutinib | IC50 (SK-BR-3 [1]): 530 nM | inhibition (SK-BR-3 [13]): Active

Source: ChEMBL document CHEMBL6153066, “Discovery of CZY43 as a new small-molecule degrader of pseudokinase HER3” (Eur J Med Chem, 2025)
